Laboratory results published in EP0186365A2, “Preparation of alcohols” (UNITED KINGDOM ATOMIC ENERGY AUTHORITY, priority 1984, dated 1986).

How the values were obtained:
[1] = biological target: T1, Horse liver alcohol dehydrogenase or HLADH (Equus caballus, UniProt P00327); assay: Example 4: activity of immobilised HLADH in the reduction of aldehydes (NADH absorbance decrease at 380 nm); type: biochemical; details: aldehyde as substrate (2mM), NADH (1mM), pH 7.0, 22 °C, initial rate over 2 minutes
T1 construct: whether it is derived from yeast (i.e. is a YADH) from horse liver (HLADH), or from another source; from tissue; host or cells: horse liver
Experimental: Horse liver alcohol dehydrogenase or HLADH (50 mg; 1 U/mg) was reacted with swelled CNBr-activated Sepharose 4B (Registered Trade Mark) beads (0.8 g).
The activity of the immobilised enzyme in the reduction of aldehydes to alcohols was determined in coupling buffer (0.1 M; pH 7.0) at 22 (+2)°C as the initial rate of decrease in absorbance at 380 nm over a 2 minute time period using NADH (lmM) and aldehyde (2mM).

YADH [2] = biological target: T2, YADH (Saccharomyces cerevisiae, UniProt P00330); assay: Inhibition/inactivation of YADH in solution by incubation with aldehyde; type: biochemical, yeast
T2 sequence (P00330 1-348): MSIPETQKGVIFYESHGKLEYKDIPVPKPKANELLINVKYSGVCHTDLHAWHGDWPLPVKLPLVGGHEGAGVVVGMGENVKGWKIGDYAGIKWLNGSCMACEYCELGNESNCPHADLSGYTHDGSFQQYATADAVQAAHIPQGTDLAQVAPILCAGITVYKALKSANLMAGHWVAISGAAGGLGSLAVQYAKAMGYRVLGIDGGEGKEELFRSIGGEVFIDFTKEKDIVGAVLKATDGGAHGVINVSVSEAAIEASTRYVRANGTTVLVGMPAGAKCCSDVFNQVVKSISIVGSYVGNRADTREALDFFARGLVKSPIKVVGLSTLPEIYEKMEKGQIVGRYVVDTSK
Description: The enzymatic reduction of aldehydes may, however, present a serious problem due to the aldehyde, whilst being a substrate for the enzyme, being a potent irreversible inhibitor.

YADH [3] = biological target: T2, YADH; assay: Example 3 (ii): inhibition of soluble YADH after pre-incubation with aldehyde; type: biochemical, yeast; details: soluble enzyme; 2 mM aldehyde, 60 min, 22 °C, then dialysis; assayed with trans-cinnamaldehyde (5 mM)
Experimental: By way of comparison, stock enzyme solution (800 µ1; 0.2 mg protein/ml) was incubated with cinnamaldehyde (200 µ1; 10 mM). This also gave a final aldehyde concentration of 2 mM and a protein concentration of 0.16 mg/ml. The reaction mixture was incubated at 22 (+2)^OC for 60 min with continuous gentle agitation. After incubation, the soluble enzyme was dialysed against coupling buffer (30 ml; 0.lM) at 4°C for 21/2 hours with one change of buffer. Enzyme activity was assayed immediately after dialysis using trans-cinnamaldehyde (5 mM) as assay substrate with a protein concentration of 0.2 mg/ml.

YADH [4] = biological target: T2, YADH; assay: Example 3 (i): inhibition of immobilised YADH after pre-incubation with aldehyde; type: biochemical, yeast; details: immobilised enzyme; 2 mM aldehyde, 60 min, 22 °C, then washing; assayed with trans-cinnamaldehyde (5 mM)
Experimental: YADH (15 mg; 200U/mg) was reacted with swelled CNBr-activated Sepharose 4B (Registered Trade Mark) beads (0.4 g; ex Pharmacia) and coupling carried out in sodium phosphate buffer (0.1M; pH 7.0) containing KCl (0.5 M) for 18 hours at 4°C. Approximately 90% of the enzyme was thus immobilised.
(§1) In order to test the inhibition of the immobilised enzyme by aldehyde, the beads (50 - 60 µl) were incubated with trans-cinnamaldehyde ([…]; 10 mM) and a coupling buffer (3.95 ml; pH 7.0). This gave a final aldehyde concentration of 2 mM and a protein concentration of 0.16 mg/ml. The reaction mixture was incubated at 22 (+2)°C for 60 min with continuous gentle agitation. The immobilised enzyme was washed three times in coupling buffer (10 ml) at 22 (+2)C and resuspended in eight times of its original volume in coupling buffer. Enzyme activity was assayed immediately after washing using trans-cinnamaldehyde (5 mM) as assay substrate with a protein concentration of 0.2 mg/ml.

immobilised HLADH = biological target: T3, immobilised HLADH (Equus caballus, UniProt P00327); assay: Example 5: inhibition of immobilised HLADH by aldehydes; type: biochemical, horse; details: (b) immobilised HLADH; assay using the aldehyde used in pre-incubation
T3 construct: whether it is derived from yeast (i.e. is a YADH) from horse liver (HLADH), or from another source; from tissue; host or cells: horse liver
Experimental: as §1
Horse liver alcohol dehydrogenase or HLADH (50 mg; 1 U/mg) was reacted with swelled CNBr-activated Sepharose 4B (Registered Trade Mark) beads (0.8 g). Approximately 90% of the enzyme was thus immobilised.
The inhibition of the immobilised enzyme (prepared as in Example 4) by aldehydes was tested and compared with the soluble enzyme as described in Example 3. The results were as follows:
(a) assaying using trans-cinnamaldehyde following pre-incubation using a different aldehyde
(b) assaying using the aldehyde used in pre-incubation

[5] = solution of the enzyme incubated with 5 mM aldehyde

T1 sequence (P00327 whole entry): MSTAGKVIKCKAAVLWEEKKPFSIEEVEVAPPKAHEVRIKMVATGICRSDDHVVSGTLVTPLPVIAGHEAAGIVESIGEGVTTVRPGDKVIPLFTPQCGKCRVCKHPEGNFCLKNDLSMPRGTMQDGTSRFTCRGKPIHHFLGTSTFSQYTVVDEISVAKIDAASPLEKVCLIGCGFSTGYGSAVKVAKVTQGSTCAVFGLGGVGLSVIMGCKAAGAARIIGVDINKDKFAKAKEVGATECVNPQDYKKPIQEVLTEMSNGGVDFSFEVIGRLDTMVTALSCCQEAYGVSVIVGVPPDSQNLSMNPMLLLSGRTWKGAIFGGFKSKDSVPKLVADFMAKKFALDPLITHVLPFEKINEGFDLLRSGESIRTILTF
T3 sequence (P00327 whole entry): as above

Structure (SMILES)	activity [1]	further results
O=Cc1ccc(O)cc1 [p-hydroxybenzaldehyde]	0.94 micromoles NADH/min/mg protein	
O=Cc1ccc2c(c1)OCO2 [piperonaldehyde]	1.47 micromoles NADH/min/mg protein	
COc1ccc(C=O)cc1 [p-anisaldehyde]	1.55 micromoles NADH/min/mg protein	
O=CC=Cc1ccccc1 [cinnamaldehyde]		time to 50% inhibition (YADH [2]; [5]): 12 min; time to total inhibition (YADH [2]; [5]): about 30 minutes; inhibition at 2000 µM (YADH [3]): 90%
O=C/C=C/c1ccccc1 [trans-cinnamaldehyde]	1.36 micromoles NADH/min/mg protein	inhibition at 2000 µM (YADH [4]): 50%
CC(C)c1ccc(C=O)cc1 [p-cuminaldehyde]	0.94 micromoles NADH/min/mg protein	
OCC=Cc1ccccc1 [cinnamyl alcohol]		inhibitory effect (YADH [2]; even at 8 mM): no inhibitory effect
CC(C)=CCCC(C)CC=O (centres unmarked) [citronellal]	0.75 micromoles NADH/min/mg protein	inhibition at 2000 µM (immobilised HLADH): 11%
O=Cc1ccccc1O [salicylaldehyde]	0.57 micromoles NADH/min/mg protein	
CC(C)=CCCC(C)=CC=O [citral]	0.91 micromoles NADH/min/mg protein	
